For one experiment, the system named is MRSA BCB8. The experiment can be described thus: MIC determination in Mueller-Hinton broth (absorbance at 600 nm). The class given is cell-based, S. aureus. Here is the method:
From a 24 h bacterial culture, MRSA BCB8 were suspended in Mueller-Hinton broth to obtain a 0.5 McF suspension, which was diluted to a final concentration of 1.10^6 CFU·ml^−1.
Then twofold serial dilutions of chemicals were prepared (from 256 μg·ml^−1 to 0.06 μg·ml^−1) and 100 μl of MRSA BCB8 suspension were incubated with 200 μl of chemical containing solutions for 24 h at 37° C.
After this time, suspension absorbances were measured at 600 nm. MICs were determined as the minimal concentration for which the lowest absorbance is observed.

The test system of experiment [1] is MRSA strain obtained from blood cultures. The experiment can be described thus: Gentamicin susceptibility of the MRSA strain studied in vivo. The class given is cell-based, S. aureus. Here is the method: Strain studied: an MRSA strain obtained from blood cultures (gentamicin MIC<0.5 μg/mL). Assessment of the animal model was realized with 10^3 CFU/mL inoculum.

≈ marks a conversion by molar mass, not a printed value.

`CN[C@H](CC(C)C)C(=O)N[C@H]1C(=O)N[C@@H](CC(N)=O)C(=O)N[C@H]2C(=O)N[C@H]3C(=O)N[C@H](C(=O)N[C@H](C(=O)O)c4cc(O)cc(O)c4-c4cc3ccc4O)[C@H](O)c3ccc(c(Cl)c3)Oc3cc2cc(c3O[C@@H]2O[C@H](CO)[C@@H](O)[C@H](O)[C@H]2O[C@H]2C[C@](C)(N)[C@H](O)[C@H](C)O2)Oc2ccc(cc2Cl)[C@H]1O` [Vancomycin] had a minimum inhibitory concentration (MIC) in the experiment with MRSA BCB8 (Staphylococcus aureus, MRSA, 24 h) of 0.6 µg/mL (≈ 0.414 µM).

Turning to “α-Norbornenyl-ω-Vancomycin Poly(Ethylene Oxide) [macro Vanco]”, the MIC in the experiment on MRSA BCB8 (MRSA BCB8, 24 h at 37° C., lowest absorbance at 600 nm) was 1.3 µg/mL. As for gentamicin, the “gentamicin MIC” value in experiment [1] was < 0.5 µg/mL.

Usually MIC stands for the least concentration at which growth counts as inhibited. A higher MIC goes with weaker potency.

Source of the values: patent US20170360947A1, “POLYMER PARTICLES AND BIOMATERIALS COMPRISING THE SAME” (UNIVERSITE DE BORDEAUX, priority 2014, published 2017).
